Experimental data taken from patent US12589099B2 (priority 2021, dated 2026).

Experiments:
[1] = 43% RH (RT), up to 5 days; cited from earlier work
[2] = test system: Aspergillus brasiliensis (ATCC No. 16404); experiment: USP 51 Preservative Challenge Test; type: cell-based; conditions: A. brasiliensis ATCC 16404; initial Log10 5.3
Procedure: (§1) In order to assess the anti-microbial properties of ALPHA-1062, the USP (US Pharmacopeia) Chapter 51 Preservative Challenge Test (USP 51) was employed. The USP 51 is a common method used to gauge preservative effectiveness. Much like a Preservative Challenge Screen, it is used to evaluate the effect of preservatives in cosmetics, personal care products, and drug products. Preservatives are typically antimicrobial ingredients that are added to aqueous product formulations to help maintain the safety of the product by inhibiting the growth and reducing the number of microbial contaminants.
(§2) In the context of the present invention, ALPHA-1062 (in the form of the gluconate salt) was assessed in place of (as) a preservative. No additional preservative was added to the ALPHA-1062 gluconate preparation, rather an anti-microbial effect of the agent itself (ALPHA-1062) was assessed. ALPHA-1062 is therefore the anti-microbial agent in the assay and experiments described below.
(§3) The USP 51 challenge test utilizes 5 microorganisms (3 bacteria and 2 fungi) for challenge testing. Each of the microorganisms are known strains of pathogenic microorganisms and they represent a wide range of microbial physiologies.
(§4) Cultures of the following microorganisms were applied, as per standard guidelines for USP 51: Candida albicans (ATCC No. 10231), Aspergillus brasiliensis (ATCC No. 16404), Escherichia coli (ATCC No. 8739), Pseudomonas aeruginosa (ATCC No. 9027), and Staphylococcus aureus (ATCC No. 6538).
(§5) The test was conducted in five sterile, capped bacteriological containers of suitable size into which a sufficient volume of product has been transferred. Each container was inoculated with one of the prepared and standardized inoculums and was mixed accordingly. The volume of the suspension inoculum used was between 0.5% and 1.0% of the volume of the product. The concentration of test microorganisms that was added to the product was such that the final concentration of the test preparation after inoculation was between 1×10^5 and 1×10^6 CFU per mL of the product, according to standard guidelines for Category 2 products.
(§6) The initial concentration of viable microorganisms in each test preparation was estimated based on the concentration of microorganisms in each of the standardized inoculums, as determined by the plate-count method.
(§7) The inoculated containers were incubated at 22.5±2.5° C. and each container was sampled at the appropriate intervals, as specified in Table 3. Any changes observed in the appearance of the culture was recorded at these intervals. By using the plate-count procedure, the number of CFU present in each test preparation was determined for the applicable intervals.
(§8) An inactivator (neutralizer) of the specific antimicrobial was incorporated in the plate count or in the appropriate dilution prepared for plating. These conditions were determined in the validation study for that sample based upon the conditions of media and microbial recovery incubation times listed in Table 2. Using the calculated concentrations of CFU per mL present at the start of the test, the change in log 10 values of the concentration of CFU per mL for each microorganism was calculated at the applicable test intervals, and the changes were expressed in terms of log reductions.
(§9) The USP Criteria for Category 2 were employed in order to determine the presence of an anti-microbial effect. For bacteria, an antimicrobial effect is evident when at least a 2.0 log reduction from the initial count is evident at 14 days and no increase is evident from the 14-day count at 28 days. For yeast and molds, an antimicrobial effect is evident when no increase from the initial calculated count is determined at 14 and 28 days.

[3] = test system: Candida albicans (ATCC No. 10231); experiment: USP 51 Preservative Challenge Test; type: cell-based; conditions: C. albicans ATCC 10231
Procedure: as §1, §2, §3, §4, §5, §6, §7, §8, §9

[4] = test system: Escherichia coli (ATCC No. 8739); experiment: USP 51 Preservative Challenge Test; type: cell-based; conditions: E. coli ATCC 8739
Procedure: as §1, §2, §3, §4, §5, §6, §7, §8, §9

[5] = test system: Pseudomonas aeruginosa (ATCC No. 9027); experiment: USP 51 Preservative Challenge Test; type: cell-based; conditions: P. aeruginosa ATCC 9027
Procedure: as §1, §2, §3, §4, §5, §6, §7, §8, §9

[6] = test system: Staphylococcus aureus (ATCC No. 6538); experiment: USP 51 Preservative Challenge Test; type: cell-based; conditions: S. aureus ATCC 6538
Procedure: as §1, §2, §3, §4, §5, §6, §7, §8, §9

[7] = test system: 5 microorganisms (3 bacteria and 2 fungi); experiment: USP 51 Preservative Challenge Test, overall assessment by USP Criteria for Category 2; type: cell-based; conditions: 14 and 28 days
Procedure: as §1
as §2, with “below. […]” for “below.”
as §7, with “applicable intervals. […]” for “applicable intervals.”

[8] = initial 6.7 × 10^5 CFU/mL (Log10 5.8), 22.5±2.5° C., no additional preservative
[9] = initial 9.1 × 10^5 CFU/mL (Log10 6.0), 22.5±2.5° C., no additional preservative
[10] = initial 2.9 × 10^5 CFU/mL (Log10 5.5), 22.5±2.5° C., no additional preservative
[11] = initial 4.0 × 10^5 CFU/mL (Log10 5.6), 22.5±2.5° C., no additional preservative

## COc1ccc2c3c1O[C@H]1C[C@@H](OC(=O)c4ccccc4)C=C[C@@]31CCN(C)C2.O=C(O)C(O)C(O)C(O)C(O)CO [Form A]
[1]
  solid state stability of the crystalline form: kinetically stable

## COc1ccc2c3c1O[C@H]1C[C@@H](OC(=O)c4ccccc4)C=C[C@@]31CCN(C)C2 [ALPHA-1062 Gluconate]
[2]
  Day 14 Log Reduction: 3.1
  Day 28 Log Reduction: 3.1
[3]; [8]
  Day 14 CFU/mL: <10 CFU/mL
  Day 28 CFU/mL: <10 CFU/mL
[3]; initial Log10 5.8
  Day 14 Log Reduction: 4.8
  Day 28 Log Reduction: 4.8
[4]; [9]
  Day 14 CFU/mL: <10 CFU/mL
  Day 28 CFU/mL: <10 CFU/mL
[4]; initial Log10 6.0
  Day 14 Log Reduction: 5.0
  Day 28 Log Reduction: 5.0
[5]; [10]
  Day 14 CFU/mL: <10 CFU/mL
  Day 28 CFU/mL: <10 CFU/mL
[5]; initial Log10 5.5
  Day 14 Log Reduction: 4.5
  Day 28 Log Reduction: 4.5
[6]; [11]
  Day 14 CFU/mL: <10 CFU/mL
  Day 28 CFU/mL: <10 CFU/mL
[6]; initial Log10 5.6
  Day 14 Log Reduction: 4.6
  Day 28 Log Reduction: 4.6
[7]
  anti-microbial effect against all 5 organisms tested in the USP 51: strong anti-microbial effect
